pIC50: −log10 of the molar value.

Consider 26 molecules from US20230322785A1, “ADENOSINE A2A AND A2B RECEPTOR DUAL ANTAGONISTS FOR IMMUNO-ONCOLOGY” (Merck Sharp & Dohme LLC, priority 2020, published 2023).

In one assay the target is T1, human A2A adenosine receptor (Homo sapiens, UniProt P29274).
T1 construct: expressed in transfected cells; host or cells: HEK293 or CHO cells
T1 sequence (P29274 whole entry): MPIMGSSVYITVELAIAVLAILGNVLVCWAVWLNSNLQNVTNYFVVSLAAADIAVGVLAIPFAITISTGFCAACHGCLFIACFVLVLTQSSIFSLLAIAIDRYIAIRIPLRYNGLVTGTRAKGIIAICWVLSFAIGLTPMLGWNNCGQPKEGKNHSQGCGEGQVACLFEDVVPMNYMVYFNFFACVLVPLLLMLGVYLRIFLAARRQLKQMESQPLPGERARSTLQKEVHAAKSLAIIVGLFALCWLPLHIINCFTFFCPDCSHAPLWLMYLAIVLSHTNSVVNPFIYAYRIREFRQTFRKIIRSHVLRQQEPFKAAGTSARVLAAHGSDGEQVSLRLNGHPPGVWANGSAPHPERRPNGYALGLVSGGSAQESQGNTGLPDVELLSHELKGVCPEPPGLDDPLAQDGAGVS
Nature of the assay: A2A binding affinity, Method (A): radioligand filtration binding with [3H]SCH58261. The settings on record: membranes of HEK293 or CHO cells expressing the human receptor. The text has this: Method (A) describes the procedure used to measure A2A binding affinity using radioligand binding. Method (B) describes the procedure used to measure A2A binding affinity using SPA technology. The method used to measure A2B binding affinity is also described below. The method used to determine the A2A IC50 value reported for each compound in the table is indicated next to the reported value. The A2B IC50 value measured using the A2B binding affinity assay is shown in the table next to the compound under the corresponding A2A value.
The A2A receptor affinity binding assay measured the amount of binding of a tritiated ligand with high affinity for the A2A adenosine receptor to membranes made from HEK293 or CHO cells recombinantly expressing the human A2A adenosine receptor, in the presence of varying concentrations of a compound of the invention. The data were generated using either filtration binding or a homogenous scintillation proximity assay (SPA).
Method (A): Measurement of A2A Binding Affinity Using Radioligand Binding
148 µL (5 µg/mL) membranes (Perkin Elmer, Cat. No. RBHA2aM400UA) and 2 µL compounds of the invention to be tested (test compound) were transferred to individual wells of a 96-well polypropylene assay plate and incubated for 15 to 30 min at room temperature. [^3H] SCH58261 ((7-(2-phenylethyl)-5-amino-2-(2-furyl)-pyrazolo-[4,3-e]-1,2,4-triazolo[1,5-c]pyrimidine)) was diluted in assay buffer (50 mM Tris pH 7.4, 10 mM MgCl2, 0.005% Tween20) to a concentration of 4 nM and 50 µL transferred to each well of the assay plate. To define total and non-specific binding, wells containing 1% DMSO and 1 µM ZM241385 (Tocris Bioscience, Cat. No. 1036) respectively, were also included. The assay plate was incubated at room temperature for 60 min with agitation. Using a FilterMate Harvester® (Perkin Elmer), the contents of the assay plate were filtered through a UniFilter-96® PEI coated plate (Perkin Elmer Cat. No. 6005274 or 6005277). Filtering was achieved by aspirating the contents of the assay plate for 5 sec, then washing and aspirating the contents three times with ice-cooled wash buffer (50 mM Tris-HCl pH 7.4, 150 mM NaCl) and allowing the vacuum manifold to dry the plate for 30 sec. The filter plate was incubated for at least 1 h at 55° C. and allowed to dry. The bottom of the filter plate was sealed with backing tape. 40 µL Ultima Gold™ (Perkin Elmer, Cat. No. 6013329) was added to each well of the filter plate and the top of the plate was sealed with TopSeal-A PLUS® clear plate seal (Perkin Elmer, Cat. No. 6050185). The plate was incubated for at least 20 min, and then the amount of radioactivity remaining in each well was determined using a TopCount® (Perkin Elmer) scintillation counter. After normalization to total and non-specific binding, the percent effect at each compound concentration was calculated. The plot of percent effect versus the log of compound concentration was analyzed electronically using a 4-parameter logistic fit based on the Levenberg-Marquardt algorithm to generate IC50 values.
One may read the pIC50 as the negative decadic logarithm of the IC50, by convention in mol/L. A high value points to a small IC50. Regarding `COc1cccc2c1nc(N)n1nc(CNC(=O)c3ccc(C(C)(C)O)cc3)nc21` [Example 2.1, N-((5-amino-7-methoxy-[1,2,4]triazolo[1,5-c]quinazolin-2-yl)methyl)-4-(2-hydroxypropan-2-yl)benzamide], the pIC50 was 9.22.
The molecule `COc1cccc2c1nc(N)n1nc(CNC(=O)c3c(C)cc(C(C)(C)O)cc3C)nc21` [Entry 1.3] gave a pIC50 of 7.99. This pIC50 is 1.23 log units lower than that of the molecule before.
Molecule `COc1cc(F)cc2c1nc(N)n1nc(CNC(=O)c3c(F)cc(C(C)(C)O)cc3F)nc21` [Example 3.4, N-((5-amino-9-fluoro-7-methoxy-[1,2,4]triazolo[1,5-c]quinazolin-2-yl)methyl)-2,6-difluoro-4-(2-hydroxypropan-2-yl)benzamide] showed a pIC50 of 7.95.
`COc1cccc2c1nc(N)n1nc(CN(C)Cc3ccc(S(N)(=O)=O)cc3)nc21` [Example 9.2, 4-((((5-amino-7-methoxy-[1,2,4]triazolo[1,5-c]quinazolin-2-yl)methyl)(methyl)amino)methyl)benzenesulfonamide] gave a pIC50 of 8.60.
On to `COc1cccc2c1nc(N)n1nc(CNC(=O)c3ccc(S(N)(=O)=O)cc3)nc21` [Example 4.10, N-((5-amino-7-methoxy-[1,2,4]triazolo[1,5-c]quinazolin-2-y1)methyl)-4-sulfamoylbenzamide], for which the pIC50 was 6.20.
Turning to `COc1cccc2c1nc(N)n1nc(CNC(=O)c3ccc(C(C)(O)C(F)(F)F)cc3)nc21` (single isomer, unassigned) [Example 2.7A, (S or R)-N-((5-amino-7-methoxy-[1,2,4]triazolo[1,5-c]quinazolin-2-yl)methyl)-4-(1,1,1-trifluoro-2-hydroxypropan-2-yl)benzamide], the pIC50 is 9.52.
`COc1cccc2c1nc(N)n1nc(CNCc3ccc(S(N)(=O)=O)cc3)nc21` [Example 11.10, 4-((((5-amino-7-methoxy-[1,2,4]triazolo[1,5-c]quinazolin-2-yl)methyl)amino)methyl)benzenesulfonamide]: the pIC50 is 8.85.
Turning to `COc1cccc2c1nc(N)n1nc(CN(C)C(=O)c3ccc(C(C)(C)O)cc3)nc21` [Example 1.2, N-((5-amino-7-methoxy-[1,2,4]triazolo[1,5-c]quinazolin-2-yl)methyl)-4-(2-hydroxypropan-2-yl)-N-methylbenzamide], the pIC50 is 9.52.
On the same count and under the same terms, the value for `COc1cccc2c1nc(N)n1nc(CNC(=O)c3ccc(C(O)(C(F)(F)F)C(F)(F)F)cc3)nc21` [Example 2.6, N-((5-amino-7-methoxy-[1,2,4]triazolo[1,5-c]quinazolin-2-yl)methyl)-4-(1,1,1,3,3,3-hexafluoro-2-hydroxypropan-2-yl)benzamide] was 9.52; that for `COc1cc(F)cc2c1nc(N)n1nc(CNC(C)(C)c3ccc(C(C)(C)O)cc3)nc21` [Example 11.9, 2-(4-(2-(((5-amino-9-fluoro-7-methoxy-[1,2,4]triazolo[1,5-c]quinazolin-2-yl)methyl)amino)propan-2-yl)phenyl)propan-2-ol] was 8.96.
`COc1cccc2c1nc(N)n1nc(CNC3CCc4c(nnn4C4CC(F)(F)C4)C3)nc21` (single isomer, unassigned) [Example 11.2A, (S or R)-2-(((1-(3,3-difluorocyclobutyl)-4,5,6,7-tetrahydro-1H-benzo[d][1,2,3]triazol-5-yl)amino)methyl)-7-methoxy-[1,2,4]triazolo[1,5-c]quinazolin-5-amine]: the pIC50 was 9.22.
`COc1cccc2c1nc(N)n1nc(CNC(=O)c3ncc(C(C)(C)O)cc3Br)nc21` [Example 4.11, N-((5-amino-7-methoxy-[1,2,4]triazolo[1,5-c]quinazolin-2-yl)methyl)-3-bromo-5-(2-hydroxypropan-2-yl)picolinamide]: the pIC50 was 8.82.

For another assay, the target named is T1, human A2A adenosine receptor. The experiment in a line: A2A binding affinity, Method (B): scintillation proximity assay (SPA) with [3H]SCH58261. The settings on record: membranes of HEK293 or CHO cells expressing the human receptor. An outline of the steps: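 Membranes from HEK293 or CHO cells expressing the receptor were pretreated with 20 µg/mL adenosine deaminase for 15 min, then bound to WGA SPA beads. [3H]SCH58261 was added at 1.25 nM in Ca/Mg-free DPBS with 10 mM MgCl2, incubated 1 h at RT, then settled 1 h. Non-specific binding used 1 µM CGS 15943. IC50 came from 4-parameter logistic fits.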
(SPA uses beads or plates that emit light when radiolabelled molecules are held near them.)
In turn, `COc1cccc2c1nc(N)n1nc(CN(Cc3ccc(Br)cc3)CC3CC3)nc21` [Example 15.17, 2-(((4-bromobenzyl)(cyclopropylmethyl)amino)methyl)-7-methoxy-[1,2,4]triazolo[1,5-c]quinazolin-5-amine] gave a pIC50 of 8.49.
Take `CCN(Cc1ccc(C(F)(F)F)cc1)Cc1nc2c3cccc(OC)c3nc(N)n2n1` [Example 15.1, 2-((ethyl(4-(trifluoromethyl)benzyl)amino)methyl)-7-methoxy-[1,2,4]triazolo[1,5-c]quinazolin-5-amine]: the pIC50 was 8.49.
The molecule `COc1cccc2c1nc(N)n1nc(CCCNCc3ccc(C(F)(F)F)cc3)nc21` [Example 10.6, 7-methoxy-2-(3-((4-(trifluoromethyl)benzyl)amino)propyl)-[1,2,4]triazolo[1,5-c]quinazolin-5-amine] showed a pIC50 of 8.06.
As for `COc1cccc2c1nc(N)n1nc(CCNCC(F)(F)C(F)(F)F)nc21` [Example 22.8, 7-methoxy-2-(2-((2,2,3,3,3-pentafluoropropyl)amino)ethyl)-[1,2,4]triazolo[1,5-c] quinazolin-5-amine], the pIC50 was 7.96.
The molecule `COc1cccc2c1nc(N)n1nc(CC(=O)N[C@@H]3CCOc4cc(F)ccc43)nc21` [Example 4.6, (R)-2-(5-amino-7-methoxy-[1,2,4]triazolo[1,5-c]quinazolin-2-yl)-N-(7-fluorochroman-4-yl)acetamide] had a pIC50 of 8.70. Against the preceding molecule, the pIC50 is 0.74 log units higher.
`COc1cccc2c1nc(N)n1nc(CC(=O)N[C@H]3CCOc4cc(F)ccc43)nc21` [Example 4.7, (S)-2-(5-amino-7-methoxy-[1,2,4]triazolo[1,5-c]quinazolin-2-yl)-N-(7-fluorochroman-4-yl)acetamide] had a pIC50 of 8.17.
As to `COc1cccc2c1nc(N)n1nc(CN(Cc3ccc(C(F)(F)F)cc3)S(=O)(=O)C(F)(F)F)nc21` [Example 19.3, N-((5-amino-7-methoxy-[1,2,4]triazolo[1,5-c]quinazolin-2-yl)methyl)-1,1,1-trifluoro-N-(4-(trifluoromethyl)benzyl)methanesulfonamide], the pIC50 was 6.94.
`CCOC(=O)CN(Cc1nc2c3cccc(OC)c3nc(N)n2n1)CC1CC1` [Entry 17.2] showed a pIC50 of 7.89.
`COc1cccc2c1nc(N)n1nc(CN(Cc3ccc(C(F)(F)F)cc3)C(=O)NC(C)C)nc21` [Example 20.2, 1-((5-amino-7-methoxy-[1,2,4]triazolo[1,5-c]quinazolin-2-yl)methyl)-3-isopropyl-1-(4-(trifluoromethyl)benzyl)urea] showed a pIC50 of 7.29.
In the case of `COc1cccc2c1nc(N)n1nc(CN(Cc3ccc(C(F)(F)F)cc3)CC(C)C)nc21` [Example 15.4, 2-((isobutyl(4-(trifluoromethyl)benzyl)amino)methyl)-7-methoxy-[1,2,4]triazolo[1,5-c]quinazolin-5-amine], the pIC50 is 8.38.
Take `COc1cccc2c1nc(N)n1nc(CC(=O)N[C@H]3CCOc4ccncc43)nc21` [Example 4.8, (S)-2-(5-amino-7-methoxy-[1,2,4]triazolo[1,5-c]quinazolin-2-yl)-N-(3,4-dihydro-2H-pyrano[3,2-c]pyridin-4-yl)acetamide]: the pIC50 was 6.95. Against the preceding molecule, the pIC50 is 1.43 log units lower.
Consider `COc1cccc2c1nc(N)n1nc(CN[C@H](C)C3CC3)nc21` [Example 7.8, (R)-2-(((1-cyclopropylethyl)amino)methyl)-7-methoxy-[1,2,4]triazolo[1,5-c]quinazolin-5-amine], for which the pIC50 is 7.92.
For `COc1cccc2c1nc(N)n1nc(CN(C)c3cccnc3Br)nc21` [Example 10.3, 2-(((2-bromopyridin-3-yl)(methyl)amino)methyl)-7-methoxy-[1,2,4]triazolo[1,5-c]quinazolin-5-amine], the pIC50 is 7.38.
Turning to `COc1cccc2c1nc(N)n1nc(CN(C)CCc3ccc(C(F)(F)F)cc3)nc21` [Example 15.13, 7-methoxy-2-((methyl(4-(trifluoromethyl)phenethyl)amino)methyl)-[1,2,4]triazolo[1,5-c]quinazolin-5-amine], the pIC50 was 8.10.
